Experimental data published in publication PMC7774954, “Interactomic affinity profiling by holdup assay: Acetylation and distal residues impact the PDZome-binding specificity of PTEN phosphatase” (PLoS ONE, 2020).
*1 amine or outer side, *2 acyl side, *3 side chain or, on linkers, in order; H or OH if unused. Where a SMILES comes first, the peptide text is derived from it. The star is where a group is joined. X1 = O=C(CCCC[C@@H]1SC[C@@H]2NC(=O)N[C@@H]21)NCCCOCCOCCOCCCN*; Suc = O=C(CCC(=O)[*:2])[*:1]

Experiments:
MAGI2-6 = MAGI2-6 (Homo sapiens, UniProt Q86UL8); experiment: Holdup assay, MAGI2-6; assay type: binding
LNX2-1 = experiment: Holdup assay, LNX2-1; assay type: binding, human
LRRC7-1 = LRRC7-1 (Homo sapiens, UniProt Q96NW7); experiment: Holdup assay, LRRC7-1; assay type: binding
MAST4-1 = experiment: Holdup assay, MAST4-1; assay type: binding, human
MAGI2-5 = MAGI2-5 (Homo sapiens, UniProt Q86UL8); experiment: Holdup assay, MAGI2-5; assay type: binding
DLG3-2 = target: T1, DLG3-2 (Homo sapiens, UniProt Q92796); experiment: Holdup assay, DLG3-2; assay type: binding
T1 sequence (Q92796 244-330): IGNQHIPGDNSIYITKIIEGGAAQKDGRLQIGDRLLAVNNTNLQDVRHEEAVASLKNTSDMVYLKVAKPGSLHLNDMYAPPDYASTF

DLG3-3 = experiment: Holdup assay, DLG3-3; assay type: binding, human
GRIP1-4 = experiment: Holdup assay, GRIP1-4; assay type: binding, human
MAGI1-1 = experiment: Holdup assay, MAGI1-1; assay type: binding, human
FRMPD3-1 = experiment: Holdup assay, FRMPD3-1; assay type: binding, human
GORASP2-1 = GORASP2-1 (Homo sapiens, UniProt Q9H8Y8); experiment: Holdup assay, GORASP2-1; assay type: binding
IL16-2 = experiment: Holdup assay, IL16-2; assay type: binding, human
MAGI3-6 = target: T2, MAGI3-6 (Homo sapiens, UniProt Q5TCQ9); experiment: Holdup assay, MAGI3-6; assay type: binding
T2 sequence (Q5TCQ9 1-1481): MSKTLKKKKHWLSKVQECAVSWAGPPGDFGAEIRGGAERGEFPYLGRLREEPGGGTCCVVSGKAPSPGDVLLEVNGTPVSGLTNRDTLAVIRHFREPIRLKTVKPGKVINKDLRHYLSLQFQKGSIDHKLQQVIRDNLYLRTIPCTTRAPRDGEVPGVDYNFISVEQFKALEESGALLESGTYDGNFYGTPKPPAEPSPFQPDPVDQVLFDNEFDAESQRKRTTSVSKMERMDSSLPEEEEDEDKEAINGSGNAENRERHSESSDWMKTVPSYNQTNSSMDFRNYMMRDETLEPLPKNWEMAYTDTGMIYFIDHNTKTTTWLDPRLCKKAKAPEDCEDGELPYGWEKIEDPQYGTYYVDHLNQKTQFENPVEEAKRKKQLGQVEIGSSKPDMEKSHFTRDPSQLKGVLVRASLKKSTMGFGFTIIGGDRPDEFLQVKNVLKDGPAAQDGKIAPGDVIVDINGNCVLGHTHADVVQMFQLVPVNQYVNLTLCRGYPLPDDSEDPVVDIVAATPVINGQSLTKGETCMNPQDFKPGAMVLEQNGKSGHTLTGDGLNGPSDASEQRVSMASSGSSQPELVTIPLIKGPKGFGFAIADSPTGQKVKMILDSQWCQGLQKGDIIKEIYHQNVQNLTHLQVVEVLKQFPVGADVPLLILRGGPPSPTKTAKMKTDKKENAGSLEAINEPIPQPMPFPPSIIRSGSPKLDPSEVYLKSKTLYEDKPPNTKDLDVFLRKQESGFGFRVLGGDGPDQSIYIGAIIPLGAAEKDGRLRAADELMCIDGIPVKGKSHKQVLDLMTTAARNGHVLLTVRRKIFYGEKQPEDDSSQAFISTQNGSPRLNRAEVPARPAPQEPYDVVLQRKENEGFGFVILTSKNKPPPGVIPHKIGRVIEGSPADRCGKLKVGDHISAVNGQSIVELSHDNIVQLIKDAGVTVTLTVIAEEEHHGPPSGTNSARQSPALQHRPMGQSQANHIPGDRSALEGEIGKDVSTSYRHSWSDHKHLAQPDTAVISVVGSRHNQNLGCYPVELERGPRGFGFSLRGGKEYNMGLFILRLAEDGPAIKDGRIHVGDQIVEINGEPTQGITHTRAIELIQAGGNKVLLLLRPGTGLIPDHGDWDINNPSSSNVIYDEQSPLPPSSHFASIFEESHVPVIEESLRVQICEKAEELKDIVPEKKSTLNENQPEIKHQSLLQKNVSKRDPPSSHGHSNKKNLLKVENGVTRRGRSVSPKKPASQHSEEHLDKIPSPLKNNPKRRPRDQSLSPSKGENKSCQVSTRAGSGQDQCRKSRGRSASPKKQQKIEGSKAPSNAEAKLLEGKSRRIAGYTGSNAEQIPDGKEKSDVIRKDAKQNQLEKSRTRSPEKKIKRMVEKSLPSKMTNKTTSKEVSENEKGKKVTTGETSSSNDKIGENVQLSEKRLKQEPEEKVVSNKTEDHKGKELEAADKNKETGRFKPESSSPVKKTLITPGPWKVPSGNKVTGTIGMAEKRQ

INADL-2 = experiment: Holdup assay, INADL-2; assay type: binding, human
LNX2-3 = experiment: Holdup assay, LNX2-3; assay type: binding, human
MLLT4-1 = experiment: Holdup assay, MLLT4-1; assay type: binding, human
DEPTOR-1 = experiment: Holdup assay, DEPTOR-1; assay type: binding, human
MPDZ-10 = MPDZ-10 (Homo sapiens, UniProt O75970); experiment: Holdup assay, MPDZ-10; assay type: binding
GRIP2-6 = experiment: Holdup assay, GRIP2-6; assay type: binding, human

MAGI2-5, sequence (Q86UL8 whole entry): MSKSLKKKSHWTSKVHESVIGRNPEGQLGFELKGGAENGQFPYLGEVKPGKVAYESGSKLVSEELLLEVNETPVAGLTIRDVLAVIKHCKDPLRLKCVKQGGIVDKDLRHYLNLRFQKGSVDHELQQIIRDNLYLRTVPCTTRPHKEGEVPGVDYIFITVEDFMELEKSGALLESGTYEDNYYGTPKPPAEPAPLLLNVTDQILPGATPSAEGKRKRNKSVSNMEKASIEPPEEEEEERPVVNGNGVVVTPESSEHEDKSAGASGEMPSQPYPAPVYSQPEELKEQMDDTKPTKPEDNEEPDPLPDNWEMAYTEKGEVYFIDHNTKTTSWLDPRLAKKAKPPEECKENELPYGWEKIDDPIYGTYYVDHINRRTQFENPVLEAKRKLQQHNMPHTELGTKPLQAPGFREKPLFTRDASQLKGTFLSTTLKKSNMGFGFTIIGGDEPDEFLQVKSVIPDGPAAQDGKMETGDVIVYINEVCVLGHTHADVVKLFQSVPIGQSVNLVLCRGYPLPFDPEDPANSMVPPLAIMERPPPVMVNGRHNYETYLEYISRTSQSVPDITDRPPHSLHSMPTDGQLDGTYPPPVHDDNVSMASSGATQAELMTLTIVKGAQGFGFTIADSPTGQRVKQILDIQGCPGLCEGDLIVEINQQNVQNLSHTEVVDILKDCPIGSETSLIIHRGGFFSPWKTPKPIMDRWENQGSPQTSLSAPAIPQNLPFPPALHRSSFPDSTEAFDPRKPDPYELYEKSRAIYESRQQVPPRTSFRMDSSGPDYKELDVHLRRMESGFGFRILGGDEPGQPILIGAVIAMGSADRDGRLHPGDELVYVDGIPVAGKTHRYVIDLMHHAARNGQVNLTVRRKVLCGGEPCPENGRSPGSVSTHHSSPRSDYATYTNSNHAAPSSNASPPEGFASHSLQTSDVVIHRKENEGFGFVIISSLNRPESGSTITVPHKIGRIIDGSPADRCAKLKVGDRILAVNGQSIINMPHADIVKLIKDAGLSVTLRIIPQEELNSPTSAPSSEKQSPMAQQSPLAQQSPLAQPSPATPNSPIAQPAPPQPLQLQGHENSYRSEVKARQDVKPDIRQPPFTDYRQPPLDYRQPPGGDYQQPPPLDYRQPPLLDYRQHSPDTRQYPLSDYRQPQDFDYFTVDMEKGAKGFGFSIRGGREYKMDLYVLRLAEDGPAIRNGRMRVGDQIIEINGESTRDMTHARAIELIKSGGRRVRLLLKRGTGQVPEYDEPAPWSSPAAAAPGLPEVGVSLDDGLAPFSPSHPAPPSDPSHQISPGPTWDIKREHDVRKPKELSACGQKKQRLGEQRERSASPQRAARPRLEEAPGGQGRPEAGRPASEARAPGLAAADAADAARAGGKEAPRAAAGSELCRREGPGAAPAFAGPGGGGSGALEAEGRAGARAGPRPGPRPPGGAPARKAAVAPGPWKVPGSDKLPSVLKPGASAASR
MAGI2-6, sequence (Q86UL8 1147-1229): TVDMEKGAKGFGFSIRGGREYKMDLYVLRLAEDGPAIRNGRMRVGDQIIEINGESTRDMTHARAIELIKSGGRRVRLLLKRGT
MPDZ-10, sequence (O75970 whole entry): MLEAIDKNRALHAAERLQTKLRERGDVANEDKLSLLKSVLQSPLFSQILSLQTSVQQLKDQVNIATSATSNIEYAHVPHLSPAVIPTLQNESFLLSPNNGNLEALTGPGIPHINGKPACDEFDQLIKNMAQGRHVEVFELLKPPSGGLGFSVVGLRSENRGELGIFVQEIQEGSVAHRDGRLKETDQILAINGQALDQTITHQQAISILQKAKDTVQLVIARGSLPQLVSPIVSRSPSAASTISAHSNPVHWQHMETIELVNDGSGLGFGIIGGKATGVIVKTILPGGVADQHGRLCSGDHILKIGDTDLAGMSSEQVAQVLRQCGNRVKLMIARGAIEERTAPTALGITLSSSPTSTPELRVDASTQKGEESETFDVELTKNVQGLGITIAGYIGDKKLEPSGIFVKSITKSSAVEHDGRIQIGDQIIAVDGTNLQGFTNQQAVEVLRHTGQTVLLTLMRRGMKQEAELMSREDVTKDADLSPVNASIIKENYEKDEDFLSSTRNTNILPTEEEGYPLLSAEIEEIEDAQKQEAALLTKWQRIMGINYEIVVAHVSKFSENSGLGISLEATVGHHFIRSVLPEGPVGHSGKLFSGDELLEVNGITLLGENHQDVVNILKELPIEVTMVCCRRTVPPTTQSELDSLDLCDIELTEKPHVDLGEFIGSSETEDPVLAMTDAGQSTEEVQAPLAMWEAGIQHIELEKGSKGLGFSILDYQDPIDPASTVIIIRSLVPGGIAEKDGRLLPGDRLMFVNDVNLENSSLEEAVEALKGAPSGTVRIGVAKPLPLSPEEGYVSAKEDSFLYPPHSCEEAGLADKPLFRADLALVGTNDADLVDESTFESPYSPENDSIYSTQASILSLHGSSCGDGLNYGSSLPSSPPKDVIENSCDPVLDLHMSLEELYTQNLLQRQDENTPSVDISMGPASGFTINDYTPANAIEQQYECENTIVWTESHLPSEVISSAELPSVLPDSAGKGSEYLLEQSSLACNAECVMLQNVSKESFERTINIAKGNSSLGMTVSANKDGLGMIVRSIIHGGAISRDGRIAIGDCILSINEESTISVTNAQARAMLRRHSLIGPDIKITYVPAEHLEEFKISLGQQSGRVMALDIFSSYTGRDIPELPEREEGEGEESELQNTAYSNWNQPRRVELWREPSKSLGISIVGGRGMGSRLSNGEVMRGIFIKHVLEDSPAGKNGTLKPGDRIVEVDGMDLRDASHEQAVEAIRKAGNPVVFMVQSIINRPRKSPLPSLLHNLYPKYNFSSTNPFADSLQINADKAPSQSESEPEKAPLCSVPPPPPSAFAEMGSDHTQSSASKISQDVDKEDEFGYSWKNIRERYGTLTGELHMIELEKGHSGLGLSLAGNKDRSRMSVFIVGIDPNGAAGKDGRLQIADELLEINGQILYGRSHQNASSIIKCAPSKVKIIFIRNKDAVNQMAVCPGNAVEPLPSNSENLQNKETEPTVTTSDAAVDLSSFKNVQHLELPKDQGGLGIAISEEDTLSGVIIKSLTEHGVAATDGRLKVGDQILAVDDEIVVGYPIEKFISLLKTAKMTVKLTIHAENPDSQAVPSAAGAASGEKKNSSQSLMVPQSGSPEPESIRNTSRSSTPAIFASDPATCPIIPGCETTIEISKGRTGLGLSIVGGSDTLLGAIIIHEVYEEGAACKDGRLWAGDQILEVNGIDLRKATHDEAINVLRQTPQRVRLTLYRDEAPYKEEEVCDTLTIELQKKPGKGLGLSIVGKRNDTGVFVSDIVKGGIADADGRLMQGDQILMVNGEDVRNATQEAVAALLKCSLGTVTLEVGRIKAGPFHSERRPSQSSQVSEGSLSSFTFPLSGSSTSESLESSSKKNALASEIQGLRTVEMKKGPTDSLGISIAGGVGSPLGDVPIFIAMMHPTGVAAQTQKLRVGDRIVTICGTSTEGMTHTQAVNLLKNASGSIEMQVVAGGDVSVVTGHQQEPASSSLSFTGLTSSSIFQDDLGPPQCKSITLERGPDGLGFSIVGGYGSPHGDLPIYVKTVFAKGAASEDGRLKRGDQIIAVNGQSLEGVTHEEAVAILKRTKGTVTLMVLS

SMILES	BI (MAGI2-6)	BI (LNX2-1)	LogKD (LNX2-1)	BI (LRRC7-1)	LogKD (LRRC7-1)	BI (MAST4-1)	LogKD (MAST4-1)	BI (MAGI2-5)	BI (DLG3-2)	BI (DLG3-3)	LogKD (DLG3-3)	BI (GRIP1-4)	LogKD (GRIP1-4)	BI (MAGI1-1)	LogKD (MAGI1-1)	BI (FRMPD3-1)	LogKD (FRMPD3-1)	BI (GORASP2-1; GORASP2-1)	BI (IL16-2)	BI (MAGI3-6)	other results
CC[C@H](C)[C@H](NC(=O)[C@H](CCC(N)=O)NC(=O)[C@@H](NC(=O)[C@H](Cc1c[nH]cn1)NC(=O)[C@H](CCC(N)=O)NC(=O)[C@H](CC(=O)O)NC(=O)[C@H](CCC(=O)O)NC(=O)[C@H](CC(=O)O)NC(=O)CCC(=O)NCCCOCCOCCOCCCNC(=O)CCCC[C@@H]1SC[C@@H]2NC(=O)N[C@@H]21)[C@@H](C)O)C(=O)N[C@H](C(=O)N[C@@H](CCCCN)C(=O)N[C@H](C(=O)O)C(C)C)[C@@H](C)O [PTEN_11]	0.176	0.094	3.519	0.078	3.519	-0.08	3.519	0.214	0.13	-0.011	3.519	0.028	3.519	0.001	3.519	-0.078	3.519	0.403	-0.132	0.071	Kd (MAGI2-5): 122 µM; Kd (GORASP2-1): 48 µM; LogKD (IL16-2): 3.519; LogKD (MAGI3-6): 3.519; BI (INADL-2): 0.007; LogKD (INADL-2): 3.519; BI (LNX2-3): -0.164; LogKD (LNX2-3): 3.519; BI (MLLT4-1): -0.038; LogKD (MLLT4-1): 3.519
CC[C@H](C)[C@H](NC(=O)[C@H](CCC(N)=O)NC(=O)[C@@H](NC(=O)[C@H](Cc1c[nH]cn1)NC(=O)[C@H](CCC(N)=O)NC(=O)[C@H](CC(=O)O)NC(=O)[C@H](CCC(=O)O)NC(=O)[C@H](CC(=O)O)NC(=O)[C@H](Cc1ccccc1)NC(=O)[C@@H]1CCCN1C(=O)CCC(=O)NCCCOCCOCCOCCCNC(=O)CCCC[C@@H]1SC[C@@H]2NC(=O)N[C@@H]21)[C@@H](C)O)C(=O)N[C@H](C(=O)N[C@@H](CCCCN)C(=O)N[C@H](C(=O)O)C(C)C)[C@@H](C)O [PTEN_13] ({X1-Suc}-PFDEDQHTQITKV-OH)	0.236	-0.046	–	0.042	3.826	0.058	–	0.046	0.089	-0.054	–	-0.039	–	-0.027	–	-0.096	–	0.092	-0.025	0.044	BI (DEPTOR-1): -0.005; Kd (MAGI2-6): 52 µM; LogKD (MAGI2-5): 3.826; LogKD (DLG3-2): 3.826; LogKD (GORASP2-1; GORASP2-1): 3.826; LogKD (MAGI3-6): 3.826; BI (INADL-2): 0.043; BI (LNX2-3): -0.083; BI (MLLT4-1): 0.007; BI (MPDZ-10): 0.493; Kd (MPDZ-10): 15.5 µM; BI (GRIP2-6): -0.013
CC[C@H](C)[C@H](NC(=O)[C@H](CCC(N)=O)NC(=O)[C@@H](NC(=O)[C@H](Cc1c[nH]cn1)NC(=O)[C@H](CCC(N)=O)NC(=O)[C@H](CC(=O)O)NC(=O)[C@H](CCC(=O)O)NC(=O)[C@H](CC(=O)O)NC(=O)CCC(=O)NCCCOCCOCCOCCCNC(=O)CCCC[C@@H]1SC[C@@H]2NC(=O)N[C@@H]21)[C@@H](C)O)C(=O)N[C@H](C(=O)N[C@@H](CCCNC(=N)N)C(=O)N[C@H](C(=O)O)C(C)C)[C@@H](C)O [PTEN_KR] ({X1-Suc}-DEDQHTQITRV-OH)	0.358	0.072	3.655	0.14	–	-0.027	3.655	-0.074	0.277	0.067	3.655	-0.042	3.655	-0.057	3.655	-0.082	3.655	0.586	-0.114	0.067	Kd (MAGI2-6): 42.3 µM; LogKD (MAGI2-5): 3.655; Kd (DLG3-2): 62.4 µM; Kd (GORASP2-1): 16 µM; LogKD (IL16-2): 3.655; LogKD (MAGI3-6): 3.655; BI (INADL-2): 0.064; LogKD (INADL-2): 3.655; BI (LNX2-3): 0.021; LogKD (LNX2-3): 3.655; BI (MLLT4-1): 0.021; LogKD (MLLT4-1): 3.655
CC[C@H](C)[C@H](NC(=O)[C@H](CCC(N)=O)NC(=O)[C@@H](NC(=O)[C@H](Cc1c[nH]cn1)NC(=O)[C@H](CCC(N)=O)NC(=O)[C@H](CC(=O)O)NC(=O)[C@H](CCC(=O)O)NC(=O)[C@H](CC(=O)O)NC(=O)CCC(=O)NCCCOCCOCCOCCCNC(=O)CCCC[C@@H]1SC[C@@H]2NC(=O)N[C@@H]21)[C@@H](C)O)C(=O)N[C@H](C(=O)N[C@@H](CCCCNC(C)=O)C(=O)N[C@H](C(=O)O)C(C)C)[C@@H](C)O [PTEN_Ac]	0.469	0	3.605	-0.028	3.605	-0.003	3.605	0.148	0.445	-0.04	3.605	0.038	3.605	0.034	3.605	-0.12	3.605	0.418	-0.157	0.251	BI (DEPTOR-1): -0.046; LogKD (DEPTOR-1): 3.605; Kd (MAGI2-6): 29.6 µM; Kd (DLG3-2): 32.7 µM; Kd (GORASP2-1): 36.7 µM; LogKD (IL16-2): 3.605; Kd (MAGI3-6): 80.6 µM; BI (MPDZ-10): 0.391; Kd (MPDZ-10): 41.2 µM; BI (GRIP2-6): -0.084; LogKD (GRIP2-6): 3.605
